Legend:
[1] = biological target: T1, Tyrosine-protein phosphatase non-receptor type 1 (Homo sapiens, UniProt P18031); assay: Enzyme Assays
T1 sequence (P18031 whole entry): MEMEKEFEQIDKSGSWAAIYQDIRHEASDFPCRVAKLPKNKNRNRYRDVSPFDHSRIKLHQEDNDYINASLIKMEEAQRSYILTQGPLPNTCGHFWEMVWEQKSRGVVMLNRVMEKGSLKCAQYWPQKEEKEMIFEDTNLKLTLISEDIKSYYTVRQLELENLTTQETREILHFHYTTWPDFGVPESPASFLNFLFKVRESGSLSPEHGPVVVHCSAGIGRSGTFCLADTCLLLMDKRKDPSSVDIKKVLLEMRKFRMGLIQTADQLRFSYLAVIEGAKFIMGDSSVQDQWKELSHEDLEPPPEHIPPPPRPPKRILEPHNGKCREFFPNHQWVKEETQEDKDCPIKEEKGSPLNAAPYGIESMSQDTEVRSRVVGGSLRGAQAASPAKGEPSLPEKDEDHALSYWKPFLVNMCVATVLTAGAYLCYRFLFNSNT
Method: (§1) The in vitro enzyme inhibitory activity was evaluated by using the pNPP assay. Para-nitrophenylphosphate (pNPP) and test compounds were added to assay buffer, and reactions were initiated by the addition of PTP1B or TCPTP (10-100 nM).

[2] = biological target: T2, Tyrosine-protein phosphatase non-receptor type 2 (Homo sapiens, UniProt P17706); assay: Enzyme Assays
T2 sequence (P17706 whole entry): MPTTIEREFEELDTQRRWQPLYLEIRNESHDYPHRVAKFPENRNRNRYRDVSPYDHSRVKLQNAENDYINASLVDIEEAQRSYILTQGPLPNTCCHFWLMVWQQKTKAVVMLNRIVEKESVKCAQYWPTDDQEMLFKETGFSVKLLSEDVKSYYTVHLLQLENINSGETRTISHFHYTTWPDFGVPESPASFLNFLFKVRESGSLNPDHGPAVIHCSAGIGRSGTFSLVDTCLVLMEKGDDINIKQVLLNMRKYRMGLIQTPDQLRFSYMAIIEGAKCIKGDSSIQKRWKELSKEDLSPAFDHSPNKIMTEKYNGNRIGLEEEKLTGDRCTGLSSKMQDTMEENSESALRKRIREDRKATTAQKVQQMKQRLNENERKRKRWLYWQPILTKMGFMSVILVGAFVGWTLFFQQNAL
Method: as §1

SMILES	IC50 [1] [µM]	IC50 [2] [µM]
O=C(c1ccccc1)C(Cc1ccc2cc(Br)c(C(F)(F)P(=O)(O)O)cc2c1)(Cc1ccc2cc(Br)c(C(F)(F)P(=O)(O)O)cc2c1)n1nnc2ccccc21	0.005	0.58
O=C(c1ccccc1)C(Cc1ccc(C(F)(F)P(=O)(O)O)c(Br)c1)(Cc1ccc2cc(Br)c(C(F)(F)P(=O)(O)O)cc2n1)n1nnc2ccccc21 (stereo not drawn) [({2-[2-(1H-1,2,3-benzotriazol-1-yl)-2-({3-bromo-4-[difluoro(phosphono)methyl]phenyl}methyl)-3-oxo-3-phenylpropyl]-6-bromoquinolin-7-yl}difluoromethyl)phosphonic acid (10l)]	0.021	–
O=C(c1ccccc1)C(Cc1ccc2cc(Br)c(C(F)(F)P(=O)(O)O)cc2n1)(Cc1ccc2cc(Br)c(C(F)(F)P(=O)(O)O)cc2n1)n1nnc2ccccc21 [({2-[2-(1H-1,2,3-benzotriazol-1-yl)-2-({6-bromo-7-[difluoro(phosphono)methyl]quinolin-2-yl}methyl)-3-oxo-3-phenylpropyl]-6-bromoquinolin-7-yl}difluoromethyl)phosphonic acid (10n)]	0.005	0.101
N[S+]([O-])C(F)(F)c1ccc(CC(Cc2ccc3cc(Br)c(C(F)(F)P(=O)(O)O)cc3n2)(C(=O)c2ccccc2)n2nnc3ccccc32)cc1Br (stereo not drawn) [({2-[2-({4-[(aminosulfinyl)difluoromethyl]-3-bromophenyl}methyl)-2-(1H-1,2,3-benzotriazol-1-yl)-3-oxo-3-phenylpropyl]-6-bromoquinolin-7-yl}difluoromethyl)phosphonic acid (10m)]	0.022	–
N[S+]([O-])C(F)(F)c1cc2nc(CC(Cc3ccc4cc(Br)c(C(F)(F)P(=O)(O)O)cc4n3)(C(=O)c3ccccc3)n3nnc4ccccc43)ccc2cc1Br (stereo not drawn) [({2-[2-({7-[(aminosulfinyl)difluoromethyl]-6-bromoquinolin-2-yl}methyl)-2-(1H-1,2,3-benzotriazol-1-yl)-3-oxo-3-phenylpropyl]-6-bromoquinolin-7-yl}difluoromethyl)phosphonic acid (10o)]	0.004	0.082
O=C(c1ccccc1)C(Cc1ccc(C(F)(F)P(=O)(O)O)c(Br)c1)(Cc1ccc2cc(Br)c(C(F)(F)P(=O)(O)O)cc2c1)n1nnc2ccccc21 (stereo not drawn) [({7-[2-(1H-1,2,3-benzotriazol-1-yl)-2-({3-bromo-4-[difluoro(phosphono)methyl]phenyl}methyl)-3-oxo-3-phenylpropyl]-3-bromonaphthalen-2-yl}difluoromethyl)phosphonic acid (10b)]	0.02	0.201
O=C(c1ccccc1)C(Cc1ccc(C(F)(F)P(=O)(O)O)cc1)(Cc1ccc2cc(Br)c(C(F)(F)P(=O)(O)O)cc2c1)n1nnc2ccccc21 (stereo not drawn) [({7-[2-(1H-1,2,3-benzotriazol-1-yl)-2-({4-[difluoro(phosphono)methyl]phenyl}methyl)-3-oxo-3-phenylpropyl]-3-bromonaphthalen-2-yl}difluoromethyl)phosphonic acid (10a)]	0.046	–
O=C(c1ccccc1)C(Cc1ccc(Br)c(C(F)(F)P(=O)(O)O)c1)(Cc1ccc2cc(Br)c(C(F)(F)P(=O)(O)O)cc2c1)n1nnc2ccccc21 (stereo not drawn) [({7-[2-(1H-1,2,3-benzotriazol-1-yl)-2-({4-bromo-3-[difluoro(phosphono)methyl]phenyl}methyl)-3-oxo-3-phenylpropyl]-3-bromonaphthalen-2-yl}difluoromethyl)phosphonic acid (10c)]	0.404	–
O=C(c1ccccc1)C(Cc1ccc2cc(Br)c(C(F)(F)P(=O)(O)O)cc2c1)(Cc1ccc2cc(Br)c(C(F)(F)P(=O)(O)O)cc2n1)n1nnc2ccccc21 (stereo not drawn) [({7-[2-(1H-1,2,3-benzotriazol-1-yl)-2-({6-bromo-7-[difluoro(phosphono)methyl]quinolin-2-yl}methyl)-3-oxo-3-phenylpropyl]-3-bromonaphthalen-2-yl}difluoromethyl)phosphonic acid (10i)]	0.003	0.09
O=C1CC(c2ccc(CC(Cc3ccc4cc(Br)c(C(F)(F)P(=O)(O)O)cc4c3)(C(=O)c3ccccc3)n3nnc4ccccc43)cc2F)S(=O)(=O)N1 (stereo not drawn) [({7-[2-(1H-1,2,3-benzotriazol-1-yl)-2-{[3-fluoro-4-(1,1,3-trioxo-1λ⁶,2-thiazolidin-5-yl)phenyl]methyl}-3-oxo-3-phenylpropyl]-3-bromonaphthalen-2-yl}difluoromethyl)phosphonic acid (10g)]	0.919	–
Cc1cc(CC(Cc2ccc3cc(Br)c(C(F)(F)P(=O)(O)O)cc3c2)(C(=O)c2ccccc2)n2nnc3ccccc32)ccc1C1CC(=O)NS1(=O)=O (stereo not drawn) [({7-[2-(1H-1,2,3-benzotriazol-1-yl)-2-{[3-methyl-4-(1,1,3-trioxo-1λ⁶,2-thiazolidin-5-yl)phenyl]methyl}-3-oxo-3-phenylpropyl]-3-bromonaphthalen-2-yl}difluoromethyl)phosphonic acid (10f)]	0.924	–
O=C1CC(c2ccc(CC(Cc3ccc4cc(Br)c(C(F)(F)P(=O)(O)O)cc4c3)(C(=O)c3ccccc3)n3nnc4ccccc43)cc2)S(=O)(=O)N1 (stereo not drawn) [({7-[2-(1H-1,2,3-benzotriazol-1-yl)-3-oxo-3-phenyl-2-{[4-(1,1,3-trioxo-1λ⁶,2-thiazolidin-5-yl)phenyl]methyl}propyl]-3-bromonaphthalen-2-yl}difluoromethyl)phosphonic acid (10e)]	0.93	–
N[S+]([O-])C(F)(F)c1ccc(CC(Cc2ccc3cc(Br)c(C(F)(F)P(=O)(O)O)cc3c2)(C(=O)c2ccccc2)n2nnc3ccccc32)cc1Br (stereo not drawn) [({7-[2-({4-[(aminosulfinyl)difluoromethyl]-3-bromophenyl}methyl)-2-(1H-1,2,3-benzotriazol-1-yl)-3-oxo-3-phenylpropyl]-3-bromonaphthalen-2-yl}difluoromethyl)phosphonic acid (10d)]	0.019	0.192
N[S+]([O-])C(F)(F)c1cc2cc(CC(Cc3ccc4cc(Br)c(C(F)(F)P(=O)(O)O)cc4c3)(C(=O)c3ccccc3)n3nnc4ccccc43)ccc2cc1Br (stereo not drawn) [({7-[2-({7-[(aminosulfinyl)difluoromethyl]-6-bromonaphthalen-2-yl}methyl)-2-(1H-1,2,3-benzotriazol-1-yl)-3-oxo-3-phenylpropyl]-3-bromonaphthalen-2-yl}difluoromethyl)phosphonic acid (10j)]	0.004	0.48
N[S+]([O-])C(F)(F)c1cc2nc(CC(Cc3ccc4cc(Br)c(C(F)(F)P(=O)(O)O)cc4c3)(C(=O)c3ccccc3)n3nnc4ccccc43)ccc2cc1Br (stereo not drawn) [({7-[2-({7-[(aminosulfinyl)difluoromethyl]-6-bromoquinolin-2-yl}methyl)-2-(1H-1,2,3-benzotriazol-1-yl)-3-oxo-3-phenylpropyl]-3-bromonaphthalen-2-yl}difluoromethyl)phosphonic acid (10k)]	0.006	0.185
